According to patent US6096293A, “Antiplaque oral composition and method” (priority 1999, dated 2000):

How the values were obtained:
[1] = tested on: B. typhosus and Staph. aureus; conditions: v. B. typhosus and Staph. aureus; Suter 1941; cited from earlier work
S. sanguis [2] = assay: Minimum Inhibitory Concentration (MIC), neat AA solutions in ethanol; format: cell-based; conditions: for MIC: neat solution in 98.5% ethanol
Description: (§1) The smaller the MIC, the greater the antibacterial activity of the AA being tested. This MIC test is also described in U.S. Pat. No. 5,275,805 at column 11, lines 54-68, which description is herewith incorporated herein.

A. viscosus [3] = assay: as above; format: cell-based; conditions: for MIC: neat solution in 98.5% ethanol
Description: as §1

S. mutans [4] = assay: as above; format: cell-based; conditions: for MIC: neat solution in 98.5% ethanol
Description: as §1

bacteria [5] = assay: Antimicrobial activity in general (comparison with thymol / triclosan, effect of substitution); format: cell-based
A. naeslundii = conditions: Evans 1977; cited from earlier work
S. mutans [6] = conditions: Evans 1977; cited from earlier work
A. viscosus [7] = conditions: Evans 1977; cited from earlier work
S. sanguis [8] = conditions: Evans 1977; cited from earlier work
[9] = tested on: A. viscosus, A. naeslundii, S. mutans and S. sanguis; conditions: Evans 1977; cited from earlier work
bacteria [10] = conditions: background statement; cited from earlier work

Compound	phenol coefficient [1]	MIC (S. sanguis [2]) [ppm]	MIC (A. viscosus [3]) [ppm]	MIC (S. mutans [4]) [ppm]	inhibition of in vitro growth or plaque formation [9]	other results
CCC(C)c1ccccc1O (centres unmarked) [o-sec-butyl phenol]	28					
Oc1cc(Cl)ccc1Oc1ccc(Cl)cc1Cl [Triclosan]		0.98	0.50	1.95		activity compared to thymol (bacteria [5]; AA's of the Tables, "10 to 100 or more times"): ~100 times
O=C(Nc1ccc(Br)cc1)c1cc(Br)cc(Br)c1O [3,5,4'-tribromo-salicylanilide]						effect on growth and plaque formation (A. naeslundii): effective against growth and plaque formation; effect on growth and plaque formation (S. mutans [6]): effective against growth and plaque formation; effect on growth and plaque formation (A. viscosus [7]): effective against growth and plaque formation; effect on growth and plaque formation (S. sanguis [8]): effective against growth and plaque formation
O=C(C(=O)c1cc(Br)ccc1O)c1cc(Br)ccc1O [Dibromsalicil]						effect on growth and plaque formation (A. viscosus [7]): effective against A. viscosus
tert.butylphenol	about 20					
phenylphenol					did not inhibit in vitro growth or plaque formation	
O=S(=O)([O-])c1ccc(O)cc1.O=S(=O)([O-])c1ccc(O)cc1.[Zn+2] [zinc phenolsulfonate]					did not inhibit in vitro growth or plaque formation	
Cc1ccc(C(C)C)c(O)c1 [Thymol, 2-isopropyl-5-methylphenol]		15.60	15.60	31.25	did not inhibit in vitro growth or plaque formation	antimicrobial activity relative to triclosan (background) (bacteria [10]): only a small fraction of the activity of triclosan
CC(C)(C)c1ccc(O)c(C(C)(C)C)c1 [2,4-di-t-butylphenol]		1.95	1.95	0.98		activity relative to triclosan (S. sanguis [2]; MIC test of Example 5): somewhat less active than triclosan; activity relative to triclosan (A. viscosus [3]; MIC test of Example 5): somewhat less active than triclosan; activity relative to triclosan (S. mutans [4]; MIC test of Example 5): significantly superior to triclosan; activity relative to thymol (bacteria [5]; MIC test of Example 5, A. viscosus, S. sanguis, S. mutans): many times superior to thymol
CCC(C)c1ccc(O)cc1 (centres unmarked) [p-sec-butyl phenol]	28					
